What all share (format): functional, cell-based
Data set [1] addresses T1, Ileal sodium/bile acid cotransporter (Homo sapiens, UniProt Q12908).
T1 sequence (Q12908 whole entry): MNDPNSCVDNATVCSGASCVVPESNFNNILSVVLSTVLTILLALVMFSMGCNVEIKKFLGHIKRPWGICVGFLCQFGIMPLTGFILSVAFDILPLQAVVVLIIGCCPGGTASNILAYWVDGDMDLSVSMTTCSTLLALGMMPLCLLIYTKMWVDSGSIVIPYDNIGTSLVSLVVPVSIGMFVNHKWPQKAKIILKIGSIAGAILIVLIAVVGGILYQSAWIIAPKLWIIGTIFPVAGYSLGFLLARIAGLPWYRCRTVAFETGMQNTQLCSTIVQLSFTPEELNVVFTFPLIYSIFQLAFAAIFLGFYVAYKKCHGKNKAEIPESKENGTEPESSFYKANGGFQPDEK
The data set is described as follows: TP_TRANSPORTER: inhibition of Taurocholate uptake in ASBT-expressing COS cells.

Substrate in data set [2]: C[C@H](CCC(=O)NCC(=O)O)[C@H]1CC[C@H]2[C@@H]3[C@@H](O)C[C@@H]4C[C@H](O)CC[C@]4(C)[C@H]3CC[C@]12C
The data set is described as follows: (§1) TP_TRANSPORTER: uptake in ASBT-expressing COS cells.

Substrate in data set [3]: C[C@H](CCC(=O)NCC(=O)O)[C@H]1CC[C@H]2[C@@H]3CC[C@@H]4C[C@H](O)CC[C@]4(C)[C@H]3C[C@H](O)[C@]12C
The description is as §1.

Substrate in data set [4]: C[C@H](CCC(=O)NCC(=O)O)[C@H]1CC[C@H]2[C@@H]3[C@H](O)C[C@@H]4C[C@H](O)CC[C@]4(C)[C@H]3CC[C@]12C
Described as §1.

A word on the Ki: it is a measure of affinity in units of concentration, obtained from inhibition or displacement. Read a low Ki as higher affinity. As usually defined, the Km is the substrate concentration at which the rate is half of its maximum.

Take `C[C@H](CCC(=O)O)[C@H]1CC[C@H]2[C@@H]3[C@H](O)C[C@@H]4C[C@H](O)CC[C@]4(C)[C@H]3CC[C@]12C` [CHENODIOL]: the Ki in data set [1] is 3.3 µM.

Regarding `C[C@H](CCC(=O)O)[C@H]1CC[C@H]2[C@@H]3CC[C@@H]4C[C@H](O)CC[C@]4(C)[C@H]3C[C@H](O)[C@]12C` [DEOXYCHOLIC ACID], the Ki in data set [1] and in data set [1] (cos) was 6.3 µM each time. With `O=C1OC(c2ccc(O)c(S(=O)(=O)O)c2)(c2ccc(O)c(S(=O)(=O)O)c2)c2c(Br)c(Br)c(Br)c(Br)c21` [SULFOBROMOPHTHALEIN SODIUM], affinity in data set [1] was put at a Ki of 144 µM. Take `C[C@H](CCC(=O)NCCS(=O)(=O)O)[C@H]1CC[C@H]2[C@@H]3[C@H](O)C[C@@H]4C[C@H](O)CC[C@]4(C)[C@H]3CC[C@]12C` [TAUROCHENODEOXYCHOLATE]: in data set [1], the Ki is 6.1 µM. For the molecule `C[C@H](CCC(=O)NCCS(=O)(=O)O)[C@H]1CC[C@H]2[C@@H]3CC[C@@H]4C[C@H](O)CC[C@]4(C)[C@H]3C[C@H](O)[C@]12C` [TAURODEOXYCHOLIC ACID], the Ki in data set [1] amounted to 17.2 µM. With `C[C@H](CCC(=O)NCCS(=O)(=O)O)[C@H]1CC[C@H]2[C@@H]3[C@@H](O)C[C@@H]4C[C@H](O)CC[C@]4(C)[C@H]3CC[C@]12C` [TAURURSODIOL], the Ki in data set [1] turned out to be 28 µM. As to `C[C@H](CCC(=O)O)[C@H]1CC[C@H]2[C@@H]3[C@@H](O)C[C@@H]4C[C@H](O)CC[C@]4(C)[C@H]3CC[C@]12C` [URSODIOL], in data set [1], the Ki was 75 µM.

B1: Ileal sodium/bile acid cotransporter (Homo sapiens) (protein)
chain: T1 sequence (Q12908 whole entry)
As for B1, the figures for the Km in data set [2], in data set [3] and in data set [4] were 4.1 µM, 2 µM and 5.7 µM, respectively.

For the origin of these results see ChEMBL document CHEMBL2074437, “Expression and transport properties of the human ileal and renal sodium-dependent bile acid transporter” (Am J Physiol, 1998).
